Assay results reported in ChEMBL document CHEMBL6182859, “Synthesis of Thioloformate-Containing Lathyrane Diterpene Derivates via a [3,3] Sigmatropic Rearrangement and Their Anti-HIV Activity” (J Nat Prod, 2025).

Experiments:
[1] = tested on: Human immunodeficiency virus 1; assay: Anti-HIV activity against HIV-1 NL 4.3 infected in human MT4 cells assessed as inhibition of virus-induced cytopathicity measured after 4 days by CellTiter 96 Aqueous One Solution Cell Proliferation Assay; format: functional, organism-based; details: Human immunodeficiency virus 1, NL 4.3, MT4, 96 h
[2] = tested on: Human immunodeficiency virus 2; assay: Anti-HIV activity against HIV-2 ROD infected in human MT4 cells assessed as inhibition of virus-induced cytopathicity measured after 4 days by CellTiter 96 Aqueous One Solution Cell Proliferation Assay; format: functional, organism-based; details: Human immunodeficiency virus 2, ROD, MT4, 96 h
[3] = Cytotoxicity against human MT4 cells assessed as reduction in cell viability measured after 4 days by CellTiter 96 Aqueous One Solution Cell Proliferation Assay; format: toxicity, cell-based; details: time 4 day
[4] = Selectivity index, ratio of CC50 for cytotoxicity against human MT4 cells to EC50 for antiviral activity against HIV-1 NL 4.3 infected in human MT4 cells; format: toxicity, cell-based; details: read-out: Ratio CC50/EC50
[5] = Selectivity index, ratio of CC50 for cytotoxicity against human MT4 cells to EC50 for antiviral activity against HIV-2 ROD infected in human MT4 cells; format: toxicity, cell-based; details: read-out: Ratio CC50/EC50

## COc1ccc(OC(=O)SC/C2=C/C3[C@@H](O)[C@@H](C)C[C@]3(O)C(=O)/C(C)=C/[C@@H]3[C@H](CC2)C3(C)C)cc1 (some centres undefined)
[1]
  EC50: > 47.4 µM
[2]
  EC50: > 47.4 µM
[3]
  CC50 at 96 h: 47.4 µM

## C/C1=C\[C@@H]2[C@H](CC/C(CSC(=O)Oc3ccccc3Br)=C\C3[C@@H](O)[C@@H](C)C[C@]3(O)C1=O)C2(C)C (some centres undefined)
[1]
  EC50: > 45.2 µM
[2]
  EC50: > 45.2 µM
[3]
  CC50 at 96 h: 45.2 µM

## C/C1=C\[C@@H]2[C@H](CC/C(CSC(=O)Oc3cc(F)cc(F)c3)=C\C3[C@@H](O)[C@@H](C)C[C@]3(O)C1=O)C2(C)C (some centres undefined)
[1]
  EC50: > 45 µM
[2]
  EC50: > 45 µM
[3]
  CC50 at 96 h: 45 µM

## C/C1=C\[C@@H]2[C@H](CC/C(CSC(=O)Oc3ccccc3)=C\C3[C@@H](O)[C@@H](C)C[C@]3(O)C1=O)C2(C)C (some centres undefined)
[1]
  EC50: > 13.1 µM
[2]
  EC50: 13.1 µM
[3]
  CC50 at 96 h: 13.1 µM

## C=C1CC[C@H]2[C@@H](/C=C(\C)C(=O)[C@@]3(OC(C)=O)C[C@H](C)[C@H](OC(=O)c4ccccc4)C3[C@H]1OC(C)=O)C2(C)C (some centres undefined)
[1]
  EC50: > 100 µM
[2]
  EC50: > 100 µM
[3]
  CC50 at 96 h: > 100 µM

## C/C1=C\[C@@H]2[C@H](CC/C(CSC(=O)Oc3ccc(F)cc3)=C\C3[C@@H](O)[C@@H](C)C[C@]3(O)C1=O)C2(C)C (some centres undefined)
[1]
  EC50: > 45.2 µM
[2]
  EC50: > 45.2 µM
[3]
  CC50 at 96 h: 45.2 µM

## C/C1=C\[C@@H]2[C@H](CC/C(CSC(=O)Oc3ccc(Cl)cc3)=C\C3[C@@H](O)[C@@H](C)C[C@]3(O)C1=O)C2(C)C (some centres undefined)
[1]
  EC50: > 45.4 µM
[2]
  EC50: > 45.4 µM
[3]
  CC50 at 96 h: 45.4 µM

## C/C1=C\[C@@H]2[C@H](CC/C(CSC(=O)Oc3ccc(C)cc3)=C\C3[C@@H](O)[C@@H](C)C[C@]3(O)C1=O)C2(C)C (some centres undefined)
[1]
  EC50: 11.3 µM
[2]
  EC50: 6.6 µM
[3]
  CC50 at 96 h: 45.1 µM
[4]
  selectivity ratio: > 4
[5]
  selectivity ratio: > 6.8

## C/C1=C\[C@@H]2[C@H](CC/C(CSC(=O)Oc3c(C)cccc3C)=C\C3[C@@H](O)[C@@H](C)C[C@]3(O)C1=O)C2(C)C (some centres undefined)
[1]
  EC50: > 100 µM
[2]
  EC50: > 100 µM
[3]
  CC50 at 96 h: > 100 µM
